Measurements from PubChem BioAssay (NCI).
“And” between values parts separate entries of the source, which are not always exact repeats. Identical values can stand only once.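 Growth conditions: 96-well plates. Treatment: test compound, 48 hours, 5 concentrations. Analysis: linear interpolation between bracketing concentrations; unreached endpoints set to highest concentration. At the GI50, growth is halved. The concentration for full growth arrest is given as TGI.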

Experiments:
Assay in all cases: NCI tumour cell line growth inhibition, 48 h
HOP-92 NSCLC = system: HOP-92 NSCLC
IGROV1 ovarian = system: IGROV1 ovarian
MDA-MB-231 breast = system: MDA-MB-231 breast
NCI-H23 lung = system: NCI-H23 lung
NCI-H522 lung = system: NCI-H522 lung
OVCAR-4 ovarian = system: OVCAR-4 ovarian
SF-295 CNS = system: SF-295 CNS
SK-MEL-5 melanoma = system: SK-MEL-5 melanoma
SK-OV-3 ovarian = system: SK-OV-3 ovarian
SR leukemia = system: SR leukemia

SMILES | TGI (HOP-92 NSCLC) | TGI (IGROV1 ovarian) | TGI (MDA-MB-231 breast) | TGI (NCI-H23 lung) | TGI (NCI-H522 lung) | TGI (OVCAR-4 ovarian) | TGI (SF-295 CNS) | TGI (SK-MEL-5 melanoma) | TGI (SK-OV-3 ovarian) | TGI (SR leukemia) [µM] | GI50 (HOP-92 NSCLC) | GI50 (IGROV1 ovarian) | GI50 (MDA-MB-231 breast) | GI50 (NCI-H23 lung) | GI50 (NCI-H522 lung) | GI50 (OVCAR-4 ovarian) | GI50 (SF-295 CNS) | GI50 (SK-MEL-5 melanoma) | GI50 (SK-OV-3 ovarian) | GI50 (SR leukemia) [µM]
Nc1ccc2c(SCC(=O)Nc3ccccc3-c3ccccc3NC(=O)CSc3c4ccccc4nc4cc(N)ccc34)c3ccccc3nc2c1 | 79.9 µM | 83 µM | > 84 µM | 39.5 µM | 31.8 µM | 78.9 µM | 98 µM | 30.1 µM | > 100 µM | > 100 | – | – | – | – | – | – | – | – | – | –
Oc1cccc(-c2nc(N3CCOCC3)c3oc4ncccc4c3n2)c1 | 0.131 µM and 0.216 µM | 1.47 µM and 2.23 µM | 54.5 µM and 33.2 µM | > 100 µM and 31.4 µM | 0.666 µM and 4.67 µM | 4.12 µM and 2.9 µM | 4.08 µM and 4.6 µM | 1.2 µM and 2.44 µM | 0.606 µM and 0.393 µM | 7.42 | 0.0237 µM and 0.0243 µM | 0.327 µM and 0.425 µM | 0.34 µM and 0.3 µM | 0.269 µM and 0.292 µM | 0.0654 µM and 0.0819 µM | 0.354 µM and 0.228 µM | 1.21 µM and 1.62 µM | 0.263 µM and 0.346 µM | 0.0912 µM and 0.0819 µM | 0.244
N#CC1=C(N)Oc2c(sc3c(Br)cccc23)C1c1ccc(F)cc1 (stereo not given) | 32.2 µM | 21 µM | 15.9 µM | 17.9 µM | 13.7 µM | 23.4 µM | 0.815 µM | 12.9 µM | 18.6 µM | 11.9 | 11.5 µM | 0.605 µM | 0.824 µM | 0.416 µM | 0.0838 µM | 0.65 µM | 0.234 µM | 0.371 µM | 0.471 µM | 0.241
COc1ccc(-c2nn3ncccc3c2-c2ccnc(Nc3cccc(C(F)(F)F)c3)n2)cc1 | 16.1 µM | > 20.2 µM | > 25 µM | > 25 µM | > 21.7 µM | > 25 µM | > 25 µM | 14.5 µM | > 25 µM | > 25 | 3.03 µM | 4.39 µM | 8.12 µM | 7.99 µM | 6.39 µM | 8.54 µM | 7.6 µM | 5.27 µM | 7.76 µM | 13.5
CCCCCCCCCCCCNC(=O)[C@H]1CSC(c2ccsc2)N1 (stereo not given in full) | 2.02 µM | 1.92 µM | 1.74 µM | 1.94 µM | 11.8 µM | 1.73 µM | 1.68 µM | 5.22 µM | 1.66 µM | 2.07 | 1.01 µM | 0.96 µM | 0.946 µM | 0.992 µM | 5.14 µM | 0.911 µM | 0.926 µM | 1.36 µM | 0.955 µM | 0.882
NC1(C(=O)O)CSSC1 | 68.7 µM | 29.9 µM | 44.3 µM | 14.8 µM | 17.7 µM | 46.5 µM | 8.25 µM | 3.68 µM | 82.5 µM | > 100 | 14.3 µM | 3.91 µM | 17.1 µM | 3.02 µM | 3.41 µM | 5.44 µM | 2.35 µM | 1.91 µM | 20.3 µM | 17.8
